Measurements from patent US4879390A, “Delta-butyrolactams, thereof, processes for the preparation thereof and their medical use” (priority 1984, dated 1989).

Key:
[1] = test system: hepatic microsomal cytochrome P-450; experiment: Induction of hepatic microsomal cytochrome P-450; type: in vivo, male Kunming strain mice
Method: (§1) Male Kunming strain mice weighing 18-22 grams were used throughout the experiments. The compounds to be tested were suspended in 5% Tween 80 and given orally by gavage. The vehicle of 5% Tween 80 solution was administered to control mice via the same route. In in vitro experiments, the compounds were dissolved in dimethylformamide and added directly into the incubation mixture.
(§2) The liver microsomal cytochrome P-450 plays a key role in the detoxification of xenobiotics. Mice were administered 250 mg/kg of Clausenamide once daily for 3 days. The control mice received the vehicle. The mice were killed after fasting overnight. Liver microsomes were prepared and microsomal monooxygenases were determined.

retrograde amnesia (rat) = experiment: Retrograde amnesia (rat) under hypoxic conditions; type: in vivo, male rats; conditions: time to enter dark compartment 24 h after hypoxia
Method: The apparatus (39 cm long, 21 cm high, and 21 cm wide) consists of two compartments, one made of translucent plastic (29 cm long) and the other one painted black (10 cm long). It has a bottom of spaced metal grids which are connected to a stimulating device delivering 1.6 mA for 20 s.
Both compartments are connected via a door which can be closed.
Male rats (100-120 g body weight) will be placed individually in the large compartment and allowed to explore both compartments for 3 min.
Thereafter the animals are placed in the small (dark) compartment, the connecting door is closed and the foot shock is delivered. After that the animals are put in an air-tight cage which is perfused by a gas mixture containing 3.8% oxygen and 96.2 % nitrogen.
24 hours later the rats are placed again in the bright compartment. The observation time is 3 min.
One experiment is performed in three groups of 15 animals each:
Group A: control group, not exposed to hypoxia
Group B: control group, receiving hypoxia after first training
Group C: treated animals, receiving hypoxia after first training.
Evaluation: the times the animals need to enter the dark compartment are measured in seconds.
The time difference between the two control groups is considered to be 100% (A-B=100%).
The time difference between the control group B and the treated group C is calculated in percent (C-B=X%). X is considered to be a measure for the potency of the antiamnestic effect of the substance tested.

[2] = test system: acetaminophen hepatotoxicity in mice; experiment: Protective action against acetaminophen hepatotoxicity in mice; type: in vivo, male Kunming strain mice; conditions: 250 mg/kg × 3
Method: as §1
(§3) The parameters adopted for hepatotoxicity included serum transaminase (SGPT), liver triglycerides, and pathological examination of liver tissues. The liver lesions were scored mainly by the extent of inflammation and necrosis and graded from 0 to 4.
The experiment of anti-acetaminophen hepatotoxicity was performed in the following way. Mice were administered two doses (250 mg/kg) of Clausenamide on the first day followed by the same dose on the second day. A dose of 150 mg/kg of acetaminophen was injected ip 6 h after the last dose of the compound. SGPT was determined and liver tissues were examined 20 h after acetaminophen injection.

[3] = test system: benzo(a)pyrene hydroxylase (AHH); experiment: Induction of hepatic microsomal enzymes: benzo(a)pyrene hydroxylase (AHH); type: in vivo, male Kunming strain mice
Method: as §1, §2

barbital sleeping time = experiment: Effect on barbiturates sleeping time in mice (barbital); type: in vivo, male Kunming strain mice
Method: as §1
In another experiment, mice were given a dose of 250 mg/kg of Clausenamide. […] The sleeping time was estimated by recording the interval of disappearance and recovery of righting reflex. […] This means that the prolongation of pentobarbital sleeping time by Clausenamide was due to the inhibition of liver drug metabolism enzyme.

Aminopyrine demethylase = experiment: Induction of hepatic microsomal enzymes: aminopyrine demethylase; type: in vivo, male Kunming strain mice
Method: as §1, §2

[4] = test system: hypoxia tolerance (mouse); experiment: Increase of hypoxia tolerance (mouse); type: in vivo, male mice; conditions: for surviving/total animals: 30 min before test, 3.5% oxygen, control 9/60
Method: Collectives of male mice (20 g body weight) are placed in a plastic box divided into two chambers (size of the box: 15×28×40 cm corresponding to a volume of 16.8 l per bos). 20 mice are placed in each chamber. The box is perfused with a gas mixture containing 3.5% oxygen and 96.5% nitrogen. The perfusion volume is 4 l/min. The test substance and vehicle are administered orally 30 min before the test.
About 7 min after onset of perfusion with the hypoxic mixture animals die. The experiment is stopped when in the left hand chamber (control collective) three animals only show signs of respiration. The box is opened and the number of animals of the treated group still alive is counted.
The difference between the survived animals in both groups is evaluated using the X^2 test according to Fisher and Yates (1963) (Thomann et al. 1975).

mice = experiment: Acute toxicity test; type: in vivo; conditions: single oral dose of 3 grams/kg, 10 mice
Method: as §1

CCl4 intoxicated mice = experiment: Hepato-protective action: SGPT of CCl4 intoxicated mice; type: in vivo, male Kunming strain mice; conditions: two oral doses of 250 mg/kg
Method: as §1, §3
(§4) (a) Hepato-protective action

[5] = test system: CCl4 hepatotoxicity in mice; experiment: Protective action of Clausenamide against CCl4 hepatotoxicity in mice; type: in vivo, male Kunming strain mice; conditions: for Liver lipids (X ± SE): control 21.0 ± 4.2; for SGPT (X ± SE): nine mice per group, control 3016 ± 23
Method: as §1, §3, §4
The procedure of experiment of anti-CCl4 hepatotoxicity was the same as described above. The dosages of the active compound used were 125 and 250 mg/kg. […] Liver lipids were not decreased.

[6] = test system: thioacetamide hepatotoxicity in mice; experiment: Protective action against thioacetamide hepatotoxicity in mice; type: in vivo, male Kunming strain mice; conditions: thioacetamide 50 mg/kg
Method: as §1, §3, §4
In the experiment of thioacetamide hepatotoxicity, mice were treated according to the procedure of the first experiment except that thioacetamide (50 mg/kg) was used instead of CCl4.

[7] = Induction of hepatic microsomal cytochrome P-450: liver weight and microsomal protein; type: in vivo, male Kunming strain mice; conditions: 250 mg/kg/day × 3; 6 per group; control 4.0 ± 0.2
Method: as §1, §2

[8] = test system: NADPH-cytochrome c reductase; experiment: Induction of hepatic microsomal enzymes: NADPH-cytochrome c reductase; type: in vivo, male Kunming strain mice
Method: as §1, §2

[9] = test system: CCl4 hepatotoxicity in mice; experiment: Therapeutic effect on CCl4 hepatotoxicity in mice; type: in vivo, male Kunming strain mice
Method: as §1, §3
In another experiment, mice were first injected […] of 0.15% CCl4 in vegetable oil every other day for 3 doses. Treatment of the mice with Clausenamide (250 mg/kg daily) started from the second to fifth day after the first injection of CCl4. The determination of SGPT and pathological examination of liver tissues were performed on day 7 of the experiment.

Cytochrome b5 = experiment: Induction of hepatic microsomal enzymes: cytochrome b5; type: in vivo, male Kunming strain mice
Method: as §1, §2

[10] = test system: serum and liver transaminase (GPT); experiment: Effect on serum and liver transaminase (GPT) levels of normal mice; type: in vivo, male Kunming strain mice
Method: as §1
Two groups of mice were administered the vehicle or 250 mg/kg of Clausenamide once daily for 7 consecutive days, respectively. The serum and liver GPT were determined 24 h after the last dose administration.

[11] = test system: pentobarbital sleeping time; experiment: Effect on barbiturates sleeping time in mice (pentobarbital); type: in vivo, male Kunming strain mice; conditions: 250 mg/kg; for Sleeping time (X ± SE): 10 per group, control 71 ± 7, P <0.01
Method: as §1
In another experiment, mice were given a dose of 250 mg/kg of Clausenamide. Sodium pentobarbital (50 mg/kg) was injected ip 1 and 24 h after administration of the compounds. The sleeping time was estimated by recording the interval of disappearance and recovery of righting reflex. […] This means that the prolongation of pentobarbital sleeping time by Clausenamide was due to the inhibition of liver drug metabolism enzyme.

Solubility = type: physicochemical
[12] = 250 mg/kg once daily for 3 days

CN1C(=O)[C@@H](O)[C@H](c2ccccc2)[C@@H]1[C@@H](O)c1ccccc1 (relative stereo) [Clausenamide]
Hepatic cytochrome P-450, in words [1, 12]: increased significantly
Cytochrome P-450 ([1]; 250 mg/kg/day × 3, 6 per group, control 0.87 ± 0.07): 1.14 ± 0.07 nmol/mg protein
Action on hepatic microsomal cytochrome P-450 (concluded from sleeping time and enzyme data) ([1]; 250 mg/kg, biphasic): inhibition and followed by induction
X (antiamnestic effect, C-B as percent of A-B) (retrograde amnesia (rat); 3 mg/kg p.o.): 47%
X (antiamnestic effect, C-B as percent of A-B) (retrograde amnesia (rat); 10 mg/kg p.o.): 65%
X (antiamnestic effect, C-B as percent of A-B) (retrograde amnesia (rat); 30 mg/kg p.o.): 100%
Hepatic injuries, in words ([2]; acetaminophen 150 mg/kg ip): markedly decreased SGPT levels and hepatic injuries
SGPT levels, in words ([2]; acetaminophen 150 mg/kg ip): markedly decreased SGPT levels
Liver lipids ([2]; acetaminophen 150 mg/kg ip, control 79 ± 13): 82 ± 17 mg/g
SGPT ([2]; acetaminophen 150 mg/kg ip, nine mice per group, control 2778 ± 270, P < 0.01): 697 ± 163 unit %
Liver inflammation (grade) ([2]; acetaminophen, graded from 0 to 4, control 0.5): 0.1 grade
Liver necrosis (grade) ([2]; acetaminophen, graded from 0 to 4, control 1.4): 0 grade
Benzo(a)pyrene hydroxylase activity, in words [3, 12]: increased significantly
AHH ([3]; 250 mg/kg/day × 3, 6 per group, control 2.6 ± 0.4): 5.7 ± 0.76 nmol/min/mg protein
Sleeping time (X ± SE) (barbital sleeping time; 250 mg/kg, 1 h before barbital 200 mg/kg, 10 per group, control 197 ± 27, P >0.05): 172 ± 13 min
Barbital sleeping time, in words (barbital sleeping time; prior administration of the compound): did not affect sleeping time
Aminopyrine demethylase, in words (Aminopyrine demethylase; [12]): increased significantly
Aminopyrine demethylase (Aminopyrine demethylase; 250 mg/kg/day × 3, 6 per group, control 81 ± 6.3): 126 ± 5.2 nmol HCHO/min protein
effect ([4]; 10 mg/kg p.o.): 19.6%
surviving/total animals ([4]; 10 mg/kg p.o.): 19/60
effect ([4]; 30 mg/kg p.o.): 41.1%
surviving/total animals ([4]; 30 mg/kg p.o.): 31/60
effect ([4]; 100 mg/kg p.o.): 58.8%
increase in the survival rate ([4]; 100 mg/kg p.o.): 59%
surviving/total animals ([4]; 100 mg/kg p.o.): 40/60
hypoxia tolerance, in words ([4]; 10 to 100 mg/kg p.o.): significantly increased
Death in 7 days (mice): did not cause death
SGPT (X ± SE) (CCl4 intoxicated mice; CCl4 intoxicated mice, 8 h apart, 9 per group, control 1678 ± 261): 617 ± 323 unit %
SGPT levels of CCl4-intoxicated mice, in words (CCl4 intoxicated mice): significantly decreased SGPT levels
Liver lipids (X ± SE) ([5]; 125 mg/kg × 2, CCl4): 21.6 ± 4.4 mg/g liver
SGPT (X ± SE) ([5]; 125 mg/kg × 2, CCl4, P < 0.05): 2365 ± 245 unit %
Liver lipids (X ± SE) ([5]; 250 mg/kg × 2, CCl4): 13.4 ± 3.0 mg/g liver
Liver lesions: Inflammation grade ([5]; 250 mg/kg × 2, CCl4, graded from 0 to 4, control 1.70): 0.38 grade
Liver lesions: Necrosis grade ([5]; 250 mg/kg × 2, CCl4, graded from 0 to 4, control 2.33): 1.33 grade
SGPT (X ± SE) ([5]; 250 mg/kg × 2, CCl4, p < 0.01): 1900 ± 257 unit %
Liver injuries such as inflammation and necrosis, in words ([5]; 250 mg/kg, CCl4): less severe than those of the control
Elevation of SGPT induced by CCl4, in words ([5]; 125 and 250 mg/kg): significantly depressed the elevation of SGPT
Liver lipids, in words ([5]; CCl4): not decreased
Liver lipids (X ± SE) ([6]; 250 mg/kg × 2, control 61 ± 11.7): 39 ± 3.9 mg/g
SGPT (X ± SE) ([6]; 250 mg/kg × 2, nine mice per group, control 1696 ± 231, P < 0.01): 718 ± 229 unit %
SGPT levels, in words [6]: markedly lowered the SGPT levels
Liver weight [7]: 5.4 ± 0.2 g %
NADPH-cytochrome c reductase, in words [8, 12]: increased significantly
NADPH-cytochrome c reductase ([8]; 250 mg/kg/day × 3, 6 per group, control 103 ± 2.5): 117 ± 2.5 nmol cytochrome c reduced/min/
SGPT lowering, in words ([9]; 250 mg/kg daily, second to fifth day after first CCl4 injection): significant SGPT lowering action
Liver lesions, in words ([9]; 250 mg/kg daily, second to fifth day after first CCl4 injection, day 7): no effect on liver lesions
SGPT (X ± SE) ([9]; 250 mg/kg/day × 4, started after first CCl4 injection, 8 mice, control 2695 ± 110, P <0.01): 1718 ± 224 unit %
Cytochrome b5, in words (Cytochrome b5; [12]): increased significantly
Cytochrome b5 (Cytochrome b5; 250 mg/kg/day × 3, 6 per group, control 0.15 ± 0.01): 0.19 ± 0.01 nmol/mg protein
SGPT level of normal mice, in words ([10]; 250 mg/kg once daily for 7 days): slightly higher than that of the control, but the difference was not significant
SGPT (X ± SE) ([10]; normal mice, 250 mg/kg/day × 7, eight mice per group, control 217 ± 7.5, P > 0.05): 252 ± 22.1 unit %
LGPT (X ± SE) ([10]; normal mice, 250 mg/kg/day × 7, eight mice per group, control 260 ± 11.6, P > 0.05): 292 ± 8.0 unit/100 mg
Sleeping time (X ± SE) ([11]; 1 h before pentobarbital 50 mg/kg): 152 ± 17 min
Pentobarbital sleeping time, in words ([11]; 1 h prior to pentobarbital): prolonged markedly
Pentobarbital sleeping time, in words ([11]; 24 h before pentobarbital): shortened significantly
Sleeping time (X ± SE) ([11]; 24 h before pentobarbital 50 mg/kg): 46 ± 6 min
solubility in common organic solvents (Solubility; CHCl3, CH2Cl2, ether, ethyl acetate, etc.): only slightly soluble
solubility in hot methanol, DMSO and DMF (Solubility; hot methanol, DMSO and DMF): soluble
